In ChEMBL document CHEMBL1201862, “PubChem BioAssay data set” (2004) one finds IC50, AC50 and EC50 data, which are given here for three molecules.

Experiment [1] is described as follows: Counterscreen for antagonists of the orexin 1 receptor (OX1R; HCRTR1): Fluorescence-based cell-based high throughput dose response assay to identify antagonists of the parental CHO cell line. [Related pubchem assays (depositor defined):AID434989, AID435008, AID463079, AID485270, AID492963, AID492964, AID492965, AID493232, AID504699, AID504701]. It is filed as functional. A general note: The purpose of a counterscreen is to sort out artefacts and off-target activity.

A short description of experiment [2]: miR-122 activators in hepatoma reporter cells, dose response, cell-based, Huh7 psiCHECK-miR122, Renilla luciferase, cherry-picked (AID 651956).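 Note: huh7 hepatoma cells stably carrying a psiCHECK-2 miR-122 sensor plasmid; renilla luciferase signal reporting endogenous miR-122 activity after 48 h compound exposure.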 It is filed as functional.
Experiment [3] concerns the target Orexin receptor type 2 (Homo sapiens, UniProt O43614). Nature of the experiment: Counterscreen assay for antagonists of the orexin 1 receptor (OX1R; HCRTR1): Fluorescence-based cell-based dose response assay for antagonists of the orexin 2 receptor (OX2R; HCRTR2), run by assay provider. The experiment is classed as functional.
Experiment [4] deals with Beta Lactamase (Pseudomonas aeruginosa, UniProt Q932Y6). Nature of the experiment: beta-lactamase reporter inhibitor potency, dose response, artefact control for TLR9-MyD88 binding inhibitor project, BLA reporter cells, FRET fluorescence (AID 588341).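 Note: cell based assay in CHO-K1 cells stably expressing beta-lactamase.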 The experiment is classed as cell-based.
The target in experiment [5] is Sphingosine 1-phosphate receptor 4 (Homo sapiens, UniProt O95977). Nature of the experiment: Fluorescence dose response cell-based high throughput screening assay for antagonists of the Sphingosine 1-Phosphate Receptor 4 (S1P4). [Related pubchem assays: 1524 (Confirmation in triplicates.), 1510 (Primary screen.)]. It is filed as functional.
For experiment [6], the target named is T1, 1-phosphatidylinositol 4,5-bisphosphate phosphodiesterase beta-3 (Homo sapiens, UniProt Q01970).
T1 sequence (Q01970 whole entry): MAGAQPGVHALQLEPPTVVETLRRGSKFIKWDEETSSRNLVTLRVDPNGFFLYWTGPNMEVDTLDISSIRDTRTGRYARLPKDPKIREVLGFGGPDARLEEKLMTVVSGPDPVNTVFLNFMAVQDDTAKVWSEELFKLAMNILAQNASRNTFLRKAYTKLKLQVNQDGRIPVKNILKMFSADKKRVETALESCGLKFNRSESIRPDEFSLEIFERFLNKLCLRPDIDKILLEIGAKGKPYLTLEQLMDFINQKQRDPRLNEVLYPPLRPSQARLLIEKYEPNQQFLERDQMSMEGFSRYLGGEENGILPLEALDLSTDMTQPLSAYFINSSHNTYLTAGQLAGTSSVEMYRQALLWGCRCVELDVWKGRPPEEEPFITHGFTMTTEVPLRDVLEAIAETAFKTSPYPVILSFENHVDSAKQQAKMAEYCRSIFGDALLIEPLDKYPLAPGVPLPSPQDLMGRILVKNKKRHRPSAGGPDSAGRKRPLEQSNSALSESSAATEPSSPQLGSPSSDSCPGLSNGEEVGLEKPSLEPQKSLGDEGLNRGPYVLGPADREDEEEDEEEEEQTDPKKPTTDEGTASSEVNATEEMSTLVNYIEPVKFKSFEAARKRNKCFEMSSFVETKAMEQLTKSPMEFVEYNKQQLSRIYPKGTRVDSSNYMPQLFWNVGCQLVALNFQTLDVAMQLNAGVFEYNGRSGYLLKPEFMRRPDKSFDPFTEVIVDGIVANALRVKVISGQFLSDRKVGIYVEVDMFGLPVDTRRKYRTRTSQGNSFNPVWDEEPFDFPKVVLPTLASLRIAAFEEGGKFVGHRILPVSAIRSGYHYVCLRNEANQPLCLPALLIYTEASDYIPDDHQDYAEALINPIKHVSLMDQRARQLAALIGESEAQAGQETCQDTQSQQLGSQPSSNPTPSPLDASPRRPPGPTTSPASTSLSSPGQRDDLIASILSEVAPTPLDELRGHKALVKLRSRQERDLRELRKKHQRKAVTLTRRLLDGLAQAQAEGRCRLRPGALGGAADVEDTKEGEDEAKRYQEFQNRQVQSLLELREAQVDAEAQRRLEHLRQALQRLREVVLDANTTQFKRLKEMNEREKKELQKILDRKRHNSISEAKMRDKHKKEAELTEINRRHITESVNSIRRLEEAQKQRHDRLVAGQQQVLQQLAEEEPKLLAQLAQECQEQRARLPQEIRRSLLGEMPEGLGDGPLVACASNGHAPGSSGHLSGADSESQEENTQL
Nature of the experiment: Fluorescence-based biochemical high throughput dose response assay to identify inhibitors of phospholipase C isozymes (PLC-B3).

The target in experiment [7] is Intestinal-type alkaline phosphatase (Homo sapiens, UniProt P09923). Nature of the experiment: inhibition of human intestinal alkaline phosphatase – biochemical, dose response (AID 488876). The experiment is classed as functional.
Experiment [8] deals with Intestinal-type alkaline phosphatase (Mus musculus, UniProt P24822). Nature of the experiment: PubChem AID 488785. The experiment is classed as functional.
A short description of experiment [9]: off-target signal loss in HeLa-CEM21 co-culture – HeLa F-luc CTL cells, cherry-picked, counter-screen for HIV-1 Env fusion inhibitor project, dose response (AID 652040).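 Note: potency for signal decrease marking cytotoxic or nonspecific inhibition.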 It is filed as functional, cell-based.
Experiment [10] addresses T2, Serine/threonine-protein phosphatase (Candida dubliniensis (strain CD36 / CBS 7987 / NCPF 3949 / NRRLY-17841) (Yeast), UniProt B9W6M3).
T2 sequence (B9W6M3 whole entry): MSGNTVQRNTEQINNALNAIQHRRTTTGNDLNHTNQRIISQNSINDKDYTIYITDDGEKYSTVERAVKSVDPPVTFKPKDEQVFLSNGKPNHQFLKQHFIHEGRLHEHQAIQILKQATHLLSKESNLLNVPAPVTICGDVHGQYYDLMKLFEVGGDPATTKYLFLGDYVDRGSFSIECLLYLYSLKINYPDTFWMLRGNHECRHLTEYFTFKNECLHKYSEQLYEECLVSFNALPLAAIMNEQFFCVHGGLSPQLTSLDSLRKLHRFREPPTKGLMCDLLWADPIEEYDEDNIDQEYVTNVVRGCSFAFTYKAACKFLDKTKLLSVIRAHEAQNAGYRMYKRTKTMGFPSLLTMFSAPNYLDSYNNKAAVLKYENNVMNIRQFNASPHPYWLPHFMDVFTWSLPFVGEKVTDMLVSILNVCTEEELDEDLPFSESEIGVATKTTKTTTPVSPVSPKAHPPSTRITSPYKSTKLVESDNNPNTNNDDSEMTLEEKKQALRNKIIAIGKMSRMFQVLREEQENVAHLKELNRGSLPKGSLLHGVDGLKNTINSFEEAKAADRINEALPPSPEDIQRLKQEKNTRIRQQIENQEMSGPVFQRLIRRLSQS
Nature of the experiment: calcineurin pathway inhibitors in yeast reporter, dose response, S. cerevisiae, CDRE-lacZ, luminescence, secondary (AID 2388).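 Note: yeast reporter cells carrying a calcineurin-responsive lacZ construct stimulated with calcium chloride; luminescent beta-galactosidase reporter signal in whole cells rather than isolated phosphatase activity; potency for inhibition where a drop in reporter signal means calcineurin blockade.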 It is filed as functional, cell-based.

The nature of experiment [11]: cytotoxicity toward NIH3T3 fibroblasts, dose response, counter-screen, cell-based, ATP luminescence, mouse fibroblasts (AID 2010).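 Note: cells exposed to compound for about 90 hours before reading.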 The experiment is classed as functional.
The target in experiment [12] is ATP-dependent molecular chaperone HSP82 (Candida albicans (strain WO-1) (Yeast), UniProt C4YTQ8). Nature of the experiment: loss of DOC-induced GRE-beta-galactosidase reporter signal, dose response, Hsp90 inhibitor project, S. cerevisiae, luminescence (AID 2400).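 Note: beta-galactosidase luminescence from glucocorticoid response element reporter as proxy for Hsp90 function; inhibitor potency where signal loss means Hsp90 inhibition.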 The experiment is classed as functional, cell-based.
Experiment [13] is described as follows: Counterscreen for AddAB inhibitors: absorbance-based bacterial cell-based high throughput dose response assay for inhibitors of bacterial viability. [Related pubchem assays (depositor defined):AID435030, AID449728, AID449731, AID488942, AID488955, AID488956]. The experiment is classed as functional.

Each structure is given as a SMILES string. Calls of active or inactive are those of the source. Where only a bound is given, the exact number is not on record here.

Orexin receptor type 2, sequence (O43614 whole entry): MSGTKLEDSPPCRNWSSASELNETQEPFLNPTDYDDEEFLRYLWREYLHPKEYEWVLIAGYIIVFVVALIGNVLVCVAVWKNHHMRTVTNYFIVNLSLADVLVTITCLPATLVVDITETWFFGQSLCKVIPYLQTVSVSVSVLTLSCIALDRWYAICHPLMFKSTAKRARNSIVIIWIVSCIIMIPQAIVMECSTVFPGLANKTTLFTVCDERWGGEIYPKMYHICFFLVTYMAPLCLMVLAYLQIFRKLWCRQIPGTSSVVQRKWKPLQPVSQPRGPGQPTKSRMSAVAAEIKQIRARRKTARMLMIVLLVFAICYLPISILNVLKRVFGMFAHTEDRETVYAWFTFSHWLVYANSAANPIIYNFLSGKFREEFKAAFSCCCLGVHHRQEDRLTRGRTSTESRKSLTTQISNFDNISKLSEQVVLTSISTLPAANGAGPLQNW
Intestinal-type alkaline phosphatase (Mus musculus, UniProt P24822), sequence (P24822 whole entry, the tested form may be a part): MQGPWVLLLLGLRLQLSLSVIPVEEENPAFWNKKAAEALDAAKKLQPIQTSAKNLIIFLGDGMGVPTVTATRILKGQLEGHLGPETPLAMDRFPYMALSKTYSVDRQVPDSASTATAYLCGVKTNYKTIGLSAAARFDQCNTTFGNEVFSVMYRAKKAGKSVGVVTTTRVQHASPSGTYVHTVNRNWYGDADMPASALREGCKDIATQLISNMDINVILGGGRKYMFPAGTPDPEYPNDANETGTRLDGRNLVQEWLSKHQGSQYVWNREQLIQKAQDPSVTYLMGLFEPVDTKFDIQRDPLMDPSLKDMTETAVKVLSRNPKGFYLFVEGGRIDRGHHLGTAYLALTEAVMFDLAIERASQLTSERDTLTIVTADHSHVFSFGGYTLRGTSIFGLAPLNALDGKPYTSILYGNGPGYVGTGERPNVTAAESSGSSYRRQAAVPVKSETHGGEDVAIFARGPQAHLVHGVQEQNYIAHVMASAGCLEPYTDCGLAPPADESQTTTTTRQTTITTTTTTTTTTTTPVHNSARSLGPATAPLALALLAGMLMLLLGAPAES
Sphingosine 1-phosphate receptor 4, sequence (O95977 whole entry): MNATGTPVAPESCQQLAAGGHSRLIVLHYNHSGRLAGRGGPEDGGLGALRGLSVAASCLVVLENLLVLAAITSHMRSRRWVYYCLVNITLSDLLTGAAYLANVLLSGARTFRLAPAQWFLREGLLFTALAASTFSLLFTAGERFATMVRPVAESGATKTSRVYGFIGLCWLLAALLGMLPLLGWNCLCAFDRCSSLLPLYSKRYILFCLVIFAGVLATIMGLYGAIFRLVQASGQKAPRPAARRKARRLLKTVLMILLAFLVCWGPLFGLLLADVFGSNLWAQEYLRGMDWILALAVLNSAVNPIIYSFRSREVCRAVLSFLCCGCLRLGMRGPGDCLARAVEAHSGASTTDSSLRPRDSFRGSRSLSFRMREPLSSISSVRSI
Intestinal-type alkaline phosphatase (Homo sapiens, UniProt P09923), sequence (P09923 whole entry): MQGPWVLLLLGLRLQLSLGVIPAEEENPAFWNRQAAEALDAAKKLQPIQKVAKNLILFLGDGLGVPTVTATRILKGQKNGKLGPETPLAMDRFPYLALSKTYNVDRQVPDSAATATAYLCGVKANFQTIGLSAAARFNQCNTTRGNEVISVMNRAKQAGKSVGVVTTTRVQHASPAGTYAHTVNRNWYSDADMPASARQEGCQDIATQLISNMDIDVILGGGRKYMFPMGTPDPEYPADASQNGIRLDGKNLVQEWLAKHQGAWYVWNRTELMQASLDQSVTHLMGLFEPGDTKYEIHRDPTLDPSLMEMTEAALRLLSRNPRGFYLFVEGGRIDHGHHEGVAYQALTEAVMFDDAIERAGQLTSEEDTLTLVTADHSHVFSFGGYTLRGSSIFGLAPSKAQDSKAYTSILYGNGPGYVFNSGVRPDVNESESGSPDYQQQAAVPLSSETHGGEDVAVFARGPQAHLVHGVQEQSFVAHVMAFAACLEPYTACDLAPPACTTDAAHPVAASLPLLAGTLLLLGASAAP
Beta Lactamase, sequence (Q932Y6 whole entry): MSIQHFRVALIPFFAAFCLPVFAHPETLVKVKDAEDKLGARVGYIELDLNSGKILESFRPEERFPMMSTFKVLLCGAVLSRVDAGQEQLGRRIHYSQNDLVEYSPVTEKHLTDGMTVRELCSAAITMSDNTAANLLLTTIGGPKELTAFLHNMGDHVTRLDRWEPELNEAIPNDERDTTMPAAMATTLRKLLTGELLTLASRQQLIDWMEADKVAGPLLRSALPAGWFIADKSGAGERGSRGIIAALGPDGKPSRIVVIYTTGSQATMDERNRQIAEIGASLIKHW
ATP-dependent molecular chaperone HSP82, sequence (C4YTQ8 whole entry): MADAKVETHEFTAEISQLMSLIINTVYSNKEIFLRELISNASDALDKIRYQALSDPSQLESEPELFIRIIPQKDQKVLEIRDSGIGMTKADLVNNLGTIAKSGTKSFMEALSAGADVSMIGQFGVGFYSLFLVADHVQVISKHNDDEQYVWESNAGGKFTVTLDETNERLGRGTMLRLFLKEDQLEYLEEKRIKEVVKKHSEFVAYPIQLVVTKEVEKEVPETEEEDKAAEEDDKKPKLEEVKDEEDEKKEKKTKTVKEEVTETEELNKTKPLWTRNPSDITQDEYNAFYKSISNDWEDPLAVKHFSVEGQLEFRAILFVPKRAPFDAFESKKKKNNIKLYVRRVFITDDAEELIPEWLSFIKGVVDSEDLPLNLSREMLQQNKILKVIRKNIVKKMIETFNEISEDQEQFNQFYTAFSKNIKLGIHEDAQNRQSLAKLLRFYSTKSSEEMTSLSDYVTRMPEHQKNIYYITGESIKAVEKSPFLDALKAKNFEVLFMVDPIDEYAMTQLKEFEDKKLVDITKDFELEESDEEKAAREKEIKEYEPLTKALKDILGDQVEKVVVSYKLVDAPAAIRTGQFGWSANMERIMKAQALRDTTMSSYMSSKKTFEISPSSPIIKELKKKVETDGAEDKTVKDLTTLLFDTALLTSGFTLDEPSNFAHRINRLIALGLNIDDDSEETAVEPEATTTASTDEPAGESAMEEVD

The IC50 is the concentration that gives 50% inhibition. The AC50 is the midpoint of the concentration-response curve, whichever way the signal moves. For `Cc1ccc(C(=O)OCn2ncc(Cl)c(Cl)c2=O)cc1`, the IC50 was > 49.7 µM (inactive) in [1], > 88.8 µM (inactive) in [3], 48.7 µM (inactive) in experiment [4] and 1.27 µM (active) in experiment [5]. Moreover, the AC50 in experiment [2] was 9.52 µM (active).

Take `O=C(O)CC(C(=O)O)N1C(=O)/C(=C/C=C/c2ccco2)SC1=S` (stereo not drawn): the IC50 was > 122 µM (inactive) in [6], > 100 µM (inactive) in experiment [7] and 30.4 µM (active) in experiment [8].

Broadly, the EC50 is the midpoint of the concentration-response curve. Take `CCCC(=O)NC(c1cccs1)c1cc(Cl)c2cccnc2c1O` (stereo not drawn): the AC50 in experiment [9] is 6.09 µM (active). In addition, the EC50 is > 180 µM (inactive) in experiment [10], 2.61 µM (active) in experiment [11] and > 150 µM (inactive) in [12]. For the same molecule, the IC50 in experiment [13] was > 119 µM (inactive).
